ChEMBL document CHEMBL3868595, “Plazomicin is effective in a non-human primate pneumonic plague model” (Bioorg Med Chem, 2016)
Active and inactive are the calls of the source. No cut-off for these calls is given here.

Legend:
[1] = system: African green monkey; assay: Toxicity in African green monkey 7653 model infected with Yersinia pestis Colorado 92 assessed as blood urea nitrogen level at 25 mg/kg, iv administered within 6 hrs post onset of sustained fever as 30 mins infusion for 10 days (reference value: 22 mg/dl); format: organism-based; conditions: chlorocebus sabaeus, in vivo
[2] = system: African green monkey; assay: Toxicity in African green monkey B6127 model infected with Yersinia pestis Colorado 92 assessed as effect on serum electrolyte abnormality at 25 mg/kg, iv administered within 6 hrs post onset of sustained fever as 30 mins infusion for 10 days; format: organism-based; conditions: chlorocebus sabaeus, in vivo
[3] = system: African green monkey; assay: Toxicity in African green monkey B6428 model infected with Yersinia pestis Colorado 92 assessed as serum creatinine level at 25 mg/kg, iv administered within 6 hrs post onset of sustained fever as 30 mins infusion for 10 days (reference value: 0.8 mg/dl); format: organism-based; conditions: chlorocebus sabaeus, in vivo
[4] = system: Yersinia pestis; assay: Antibacterial activity against Yersinia pestis Colorado 92 infected in African green monkey B6127 model assessed as bacterial burden in tracheobronchial lymph nodes at 25 mg/kg, iv administered within 6 hrs post onset of sustained fever as 30 mins infusion for 10 days (reference value: 7.7 10^9CFU/g); format: functional, organism-based; conditions: CO92, Lymph node
[5] = system: Yersinia pestis; assay: Antibacterial activity against Yersinia pestis Colorado 92 infected in African green monkey B6672 model assessed as bacterial burden in kidney at 12.5 mg/kg, iv administered within 6 hrs post onset of sustained fever as 30 mins infusion for 5 days (reference value: 7.1 10^7CFU/g); format: functional, CO92
[6] = AUC (0 to 24 hrs) in African green monkey blood at 25 mg/kg administered as iv infusion twice daily for 7 consecutive days measured on day 7 by LC-MS/MS analysis; format: ADME, organism-based; parameters: time < 24 hr, dose 25 mg/kg, route intravenous; conditions: chlorocebus aethiops
[7] = Volume of distribution at steady state in African green monkey blood at 35 mg/kg administered as iv infusion twice daily for 7 consecutive days measured on day 7 by LC-MS/MS analysis; format: ADME, organism-based; conditions: chlorocebus aethiops, read-out: Vdss
[8] = system: African green monkey; assay: Toxicity in African green monkey assessed as effect on serum creatinine level at 35 mg/kg administered as iv infusion twice daily for 7 consecutive days measured on day 1 by LC-MS/MS analysis; format: organism-based; conditions: chlorocebus sabaeus, in vivo
[9] = system: Yersinia pestis; assay: Antibacterial activity against Yersinia pestis Colorado 92 infected in African green monkey C2149 model assessed as bacterial burden in heart at 6.25 mg/kg, iv administered within 6 hrs post onset of sustained fever as 30 mins infusion for 5 days (reference value: 2.6 10^7CFU/g); format: functional, CO92
[10] = system: African green monkey; assay: Toxicity in African green monkey 7643 model infected with Yersinia pestis Colorado 92 assessed as serum gamma glutamyl-transferase level at 25 mg/kg, iv administered within 6 hrs post onset of sustained fever as 30 mins infusion for 10 days (reference value: 44 IU/L); format: organism-based; conditions: chlorocebus sabaeus, in vivo
[11] = system: Yersinia pestis; assay: Antibacterial activity against Yersinia pestis Colorado 92 infected in African green monkey C2149 model assessed as bacterial burden in kidney at 6.25 mg/kg, iv administered within 6 hrs post onset of sustained fever as 30 mins infusion for 5 days (reference value: 7.1 10^7CFU/g); format: functional, CO92
[12] = system: African green monkey; assay: Toxicity in African green monkey B6428 model infected with Yersinia pestis Colorado 92 assessed as serum lactate dehydrogenase level at 25 mg/kg, iv administered within 6 hrs post onset of sustained fever as 30 mins infusion for 10 days (reference value: 238 IU/L); format: organism-based; conditions: chlorocebus sabaeus, in vivo
[13] = Clearance in African green monkey blood at 35 mg/kg administered as iv infusion twice daily for 7 consecutive days measured on day 7 by LC-MS/MS analysis; format: ADME, organism-based; conditions: chlorocebus aethiops
[14] = system: Yersinia pestis; assay: Antibacterial activity against Yersinia pestis Colorado 92 infected in African green monkey assessed as improvement in survival of monkey at 6.25 to 25 mg/kg, iv administered within 6 hrs post onset of sustained fever as 30 mins infusion for 10 days; format: functional, organism-based; conditions: CO92
[15] = system: African green monkey; assay: Toxicity in African green monkey B6140 model infected with Yersinia pestis Colorado 92 assessed as serum lactate dehydrogenase level at 25 mg/kg, iv administered within 6 hrs post onset of sustained fever as 30 mins infusion for 10 days (reference value: 290 IU/L); format: organism-based; conditions: chlorocebus sabaeus, in vivo
[16] = system: Yersinia pestis; assay: Antibacterial activity against Yersinia pestis Colorado 92 infected in African green monkey B6106 model assessed as bacterial burden in tracheobronchial lymph nodes at 25 mg/kg, iv administered within 6 hrs post onset of sustained fever as 30 mins infusion for 5 days (reference value: 7.7 10^9CFU/g); format: functional, organism-based; conditions: CO92, Lymph node
[17] = Toxicity in African green monkey 7972 model infected with Yersinia pestis Colorado 92 assessed as total white blood cell count at 25 mg/kg, iv administered within 6 hrs post onset of sustained fever as 30 mins infusion for 10 days (reference value: 6.9 10^3/microL); format: organism-based; conditions: chlorocebus aethiops, in vivo
[18] = Volume of distribution at steady state in African green monkey blood at 25 mg/kg administered as iv infusion twice daily for 7 consecutive days measured on day 7 by LC-MS/MS analysis; format: ADME, organism-based; conditions: chlorocebus aethiops, read-out: Vdss
[19] = system: African green monkey; assay: Toxicity in African green monkey 8067 model infected with Yersinia pestis Colorado 92 assessed as serum gamma glutamyl-transferase level at 25 mg/kg, iv administered within 6 hrs post onset of sustained fever as 30 mins infusion for 10 days (reference value: 40 IU/L); format: organism-based; conditions: chlorocebus sabaeus, in vivo
[20] = system: Yersinia pestis; assay: Antibacterial activity against Yersinia pestis Colorado 92 infected in African green monkey C2149 model assessed as bacterial burden in tracheobronchial lymph nodes at 6.25 mg/kg, iv administered within 6 hrs post onset of sustained fever as 30 mins infusion for 5 days (reference value: 7.7 10^9CFU/g); format: functional, CO92, Lymph node
[21] = Toxicity in African green monkey B6428 model infected with Yersinia pestis Colorado 92 assessed as total white blood cell count at 25 mg/kg, iv administered within 6 hrs post onset of sustained fever as 30 mins infusion for 10 days (reference value: 6.2 10^3/microL); format: organism-based; conditions: chlorocebus aethiops, in vivo
[22] = system: African green monkey; assay: Toxicity in African green monkey 7653 model infected with Yersinia pestis Colorado 92 assessed as serum gamma glutamyl-transferase level at 25 mg/kg, iv administered within 6 hrs post onset of sustained fever as 30 mins infusion for 10 days (reference value: 37 IU/L); format: organism-based; conditions: chlorocebus sabaeus, in vivo
[23] = system: Yersinia pestis; assay: Antibacterial activity against Yersinia pestis Colorado 92 infected in African green monkey B6106 model assessed as bacterial burden in brain at 25 mg/kg, iv administered within 6 hrs post onset of sustained fever as 30 mins infusion for 5 days (reference value: 1.9 10^6CFU/g); format: functional, CO92
[24] = system: Yersinia pestis; assay: Antibacterial activity against Yersinia pestis Colorado 92 infected in African green monkey B6872 model assessed as bacterial burden in spleen at 25 mg/kg, iv administered within 6 hrs post onset of sustained fever as 30 mins infusion for 5 days (reference value: 1.6 10^9CFU/g); format: functional, organism-based; conditions: CO92
[25] = system: African green monkey; assay: Toxicity in African green monkey 7972 model infected with Yersinia pestis Colorado 92 assessed as serum alanine aminotransferase level at 25 mg/kg, iv administered within 6 hrs post onset of sustained fever as 30 mins infusion for 10 days (reference value: 30 IU/L); format: organism-based; conditions: chlorocebus sabaeus, in vivo
[26] = Toxicity in African green monkey 7643 model infected with Yersinia pestis Colorado 92 assessed as total white blood cell count at 25 mg/kg, iv administered within 6 hrs post onset of sustained fever as 30 mins infusion for 10 days (reference value: 6.1 10^3/microL); format: organism-based; conditions: chlorocebus aethiops, in vivo

SMILES: CN[C@@H]1[C@@H](O)[C@@H](O[C@@H]2[C@@H](O)[C@H](O[C@H]3OC(CNCCO)=CC[C@H]3N)[C@@H](N)C[C@H]2NC(=O)[C@@H](O)CCN)OC[C@]1(C)O [PLAZOMICIN]
- Activity [1]: 26 mg/dL
- Activity [2]: Toxic
- Activity [3]: 0.6 mg/dL
- Activity [4]: Below limit of detection
- Activity [5]: 25 CFU/g
- AUC at 24 h [6]: 208 µg·h/mL
- Vd [7]: 0.31 L/kg
- Activity [8]: 0.6 mg/dL
- Activity [9]: 9.7 ×10⁶ CFU/g
- Activity [10]: 35 IU/L
- Activity [11]: 16 CFU/g
- Activity [12]: 299 IU/L
- clearance [13]: 1.67 mL/min/kg
- Activity [14]: Active
- Activity [15]: 379 IU/L
- Activity [16]: Below limit of detection
- Activity [17]: 7.6 ×10³ /uL
- Vd [18]: 0.36 L/kg
- Activity [19]: 26 IU/L
- Activity [20]: 1 ×10⁹ CFU/g
- Activity [21]: 6 ×10³ /uL
- Activity [22]: 27 IU/L
- Activity [23]: 6.4 ×10⁷ CFU/g
- Activity [24]: Below limit of detection
- Activity [25]: 36 IU/L
- Activity [26]: 5.7 ×10³ /uL
